Results on seven compounds are retold here after patent US7402610B2, “Carbonyl compound containing long-chain branched alkyl group” (Idemitsu Kosan Co., Ltd., priority 2004, dated 2008).

Common to all, as to format: physicochemical
Data set [1] is described as follows: Oxidation stability test, JIS K2514, kinematic viscosity before and after heating. The note with it: for Change in kinematic viscosity (at 40° C.) / Change in kinematic viscosity (at 100° C.): after/before heating at 140° C. for 24 hours. As for the experimental part: The oxidation stability of the above synthesized triester was tested and the viscosity before and after testing was measured. The oxidation stability test was conducted in accordance with JIS K2514, wherein the kinematic viscosity was measured at 40° C. and 100° C. after heating for 24 hours at 140° C. in the presence of copper and steel catalysts. The compounds showing a small change (increase) in kinematic viscosity were regarded as excelling in oxidation stability.

Data set [2] can be described thus: Loss on heat (plasticizer evaluation), JIS K6751-4. The note with it: heating at 125° C. for three hours. The method, then:
As the plasticizer evaluation, loss on heat was evaluated. In accordance with JIS K6751-4, the decrease in amount after heating at 125° C. for three hours was used as the heating loss.

Data set [3] is described as follows: Low temperature fluidity on cooling. As to conditions: cooled to −20° C.
Data set [4] in a line: Pour point, JIS K2269. As for the experimental part: The pour point of 3-octyl-tridecanoic acid was measured in accordance with JIS K2269. The pour point was determined to be −37° C. On the other hand, the pour point of a similar compound isostearic acid (2-n-heptylundecanoic acid) was −20° C. (“14303 Chemical Products”, The Chemical Daily Co., Ltd.). Another similar compound 2-octyldodecanoic acid was a solid having a melting point of 35° C.
The pour point which indicates the characteristics of the ester of the invention was measured in accordance with JIS K2269.

[5] abbreviates: after heating at 140° C. for 24 hours, copper and steel catalysts.

Consider `CCCCCCCC/C=C\CCCCCCCC(=O)OCCCCCCCC` [Comparative Example 4, octyl oleate, reference compound], for which the “Kinematic viscosity at 40° C.” value in data set [1] (setting [5]) is 19.89 mm^2/s; in data set [1] (before heating) it was 15.33 mm^2/s. The “Change in kinematic viscosity (at 40° C.)” value (“Change … (at 40° C.)” below) in data set [1] came out at 1.29. Also, in data set [2], the “Decrease in amount after heating (%)” value was 0.30%.

Consider `CCCCCCCCCCC(CCCCCCCC)CC(=O)OC` (centres unmarked) [Example 1, methyl 3-octyl-tridecanoate], for which the Fluidity when cooled entry in data set [3] was “did not decrease”.

Consider `CCCCCCCCCCC(CCCCCCCC)CC(=O)O` (centres unmarked) [Example 2, 3-octyl-tridecanoic acid], for which the Fluidity when cooled result in data set [3] is listed as “did not decrease”. Besides, the Pour point in data set [4] is −37 °C.

Turning to `CCCCCCCCCCC(CC=O)CCCCCCCC` (centres unmarked) [Example 3, 3-octyl-tridecanal], in data set [3], the Fluidity when cooled result is listed as “has the fluidity”.

`CCCCCCCCCCC(CCCCCCCC)CC(=O)OCCCCCCCC` (centres unmarked) [Example 7, octyl 3-octyl-tridecanoate]: the “Kinematic viscosity at 40° C.” value is recorded as 21.74 mm^2/s in data set [1] (setting [5]) and 20.08 mm^2/s in data set [1] (before heating). Moreover, the “Change … (at 40° C.)” value in data set [1] amounted to 1.04. The “Decrease in amount after heating (%)” value in data set [2] was 0.10%.

On to “trimethylolpropane tri(3-octyl-tridecanoate) [Example 4]”, for which, in data set [1] (setting [5]), the “Kinematic viscosity at 40° C.” value was determined as 67.28 mm^2/s and the “Kinematic viscosity at 100° C.” value came out at 10.24 mm^2/s. In data set [1], the “Change … (at 40° C.)” value was 1.07 and the “Change in kinematic viscosity (at 100° C.)” value amounted to 1.03. Also, in data set [1] (before heating), the “Kinematic viscosity at 40° C.” value stood at 62.76 mm^2/s and the “Kinematic viscosity at 100° C.” value came out at 9.95 mm^2/s. In data set [4], the Pour point is on record as −50 or less ° C.

As to “trimethylolpropane trioleate [Comparative Example 2, reference compound]”, in data set [1] (setting [5]), the “Kinematic viscosity at 40° C.” value is reported as 60.91 mm^2/s and the “Kinematic viscosity at 100° C.” value is listed as 11.24 mm^2/s. Moreover, in data set [1], the “Change … (at 40° C.)” value is given as 1.27 and the “Change in kinematic viscosity (at 100° C.)” value was found to be 1.16. In addition, in data set [1] (before heating), the “Kinematic viscosity at 40° C.” value was found to be 47.96 mm^2/s and the “Kinematic viscosity at 100° C.” value came out at 9.66 mm^2/s. Further, the Pour point in data set [4] is −47.5 °C.
